assay: recombinant barcode read abundance after kanamycin selection (control-corrected) (log10(CPM+1)); higher = more efficient recombination; sequences stand for … in AGTGCAGAGAAAATCGGCCAGTTTTCTCTGCCTGCAGTCCGCATGCCGT…AGATTTATGCAGCGGACTGCCTTTCTCCCAAAGTGATAAACCGGACAGTATCATGGACCGGTTTTCCCGGTAATCCGTATTTGCAAGGTTGGTTTCACT; site = the 11-nt target
How it was run: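 Recombination efficiency comes from barcode counts at recombinant junctions, converted to counts per million, averaged and corrected against the control. Values appear as log10(CPM+1). They were obtained from a pooled E. coli screen in which each oligo paired a target with an IS621 bridge RNA target-binding loop, and cells were plated in duplicate on chloramphenicol/ampicillin LB agar or on chloramphenicol/ampicillin/kanamycin with 0.1 mM IPTG.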
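Note: IS621 recombinase and bridge RNA in Escherichia coli cells.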

| Sequence | recombinant barcode read abundance (log10) |
| --- | --- |
| TTACCCACTTGGGTTCTAACCTGTTGCCT (site TTACCAACTAG) | 0.0275 |
| TTACCCACTTGGGTTCTAACCTGTTGCCT (site TTACCCACTAG) | 3.27 |
| TTACCCACTTGGGTTCTAACCTGTTGCCT (site TTACCGACTAG) | 0.0929 |
| TTACCCACTTGGGTTCTAACCTGTTGCCT (site TTACCTACTAG) | 0.151 |
| TTACGAGCTTGGGTTCTAACCTGTTGCGG (site TTACGAGCTCC) | 1.81 |
| TTACGAGCTTGGGTTCTAACCTGTTGCGG (site TTACGCGCTCC) | 0.176 |
| TTACGAGCTTGGGTTCTAACCTGTTGCGG (site TTACGGGCTCC) | 0.608 |
| TTACGAGCTTGGGTTCTAACCTGTTGCGG (site TTACGTGCTCC) | 0.14 |
| TTACGTACTTGGGTTCTAACCTGTTGCCT (site ATACGTACTAG) | 0.131 |
| TTACGTACTTGGGTTCTAACCTGTTGCCT (site CTACGTACTAG) | 0.193 |
| TTACGTACTTGGGTTCTAACCTGTTGCCT (site GTACGTACTAG) | 0.19 |
| TTACGTACTTGGGTTCTAACCTGTTGCCT (site TTACGTACTAG) | 1.45 |
| TTACGTGCTTGGGTTCTAACCTGTTGCGG (site TTACGAGCTCC) | 0.271 |
| TTACGTGCTTGGGTTCTAACCTGTTGCGG (site TTACGCGCTCC) | 0.141 |
| TTACGTGCTTGGGTTCTAACCTGTTGCGG (site TTACGGGCTCC) | 0.67 |
| TTACGTGCTTGGGTTCTAACCTGTTGCGG (site TTACGTGCTCC) | 2.4 |
| TTAGAGCCTTGGGTTCTAACCTGTTGCCT (site TTAGAGACTAG) | 0.0939 |
| TTAGAGCCTTGGGTTCTAACCTGTTGCCT (site TTAGAGCCTAG) | 2 |
| TTAGAGCCTTGGGTTCTAACCTGTTGCCT (site TTAGAGGCTAG) | 0.173 |
| TTAGAGCCTTGGGTTCTAACCTGTTGCCT (site TTAGAGTCTAG) | 0.644 |
| TTAGAGTCTTGGGTTCTAACCTGTTGCCT (site TTAGAGACTAG) | 0.103 |
| TTAGAGTCTTGGGTTCTAACCTGTTGCCT (site TTAGAGCCTAG) | 0.925 |

| Sequence | recombinant barcode read abundance (log10) |
| --- | --- |
| TTAGAGTCTTGGGTTCTAACCTGTTGCCT (site TTAGAGGCTAG) | 0.126 |
| TTAGAGTCTTGGGTTCTAACCTGTTGCCT (site TTAGAGTCTAG) | 2.08 |
| TTAGCCTCTTGGGTTCTAACCTGTTGCCT (site TTAGCATCTAG) | 0.168 |
| TTAGCCTCTTGGGTTCTAACCTGTTGCCT (site TTAGCCTCTAG) | 2.66 |
| TTAGCCTCTTGGGTTCTAACCTGTTGCCT (site TTAGCGTCTAG) | 0.137 |
| TTAGCCTCTTGGGTTCTAACCTGTTGCCT (site TTAGCTTCTAG) | 0.00901 |
| TTAGCGTCTTGGGTTCTAACCTGTTGCCT (site TTAGCATCTAG) | 1.47 |
| TTAGCGTCTTGGGTTCTAACCTGTTGCCT (site TTAGCCTCTAG) | 0.0674 |
| TTAGCGTCTTGGGTTCTAACCTGTTGCCT (site TTAGCGTCTAG) | 1.73 |
| TTAGCGTCTTGGGTTCTAACCTGTTGCCT (site TTAGCTTCTAG) | 0.129 |
| TTATACACTTGGGTTCTAACCTGTTGCTC (site GATAGGGCTAG) | 0.0179 |
| TTATACACTTGGGTTCTAACCTGTTGCTC (site TTATACACTGA) | 0.919 |
| TTATGATCTTGGGTTCTAACCTGTTGCCT (site TCATGAACTAG) | 0.0371 |
| TTATGATCTTGGGTTCTAACCTGTTGCCT (site TTATGATCTAG) | 0.193 |
| TTATGGGCTTGGGTTCTAACCTGTTGCCG (site TCCTGGGCTCG) | 0.114 |
| TTATGGGCTTGGGTTCTAACCTGTTGCCG (site TTATGGGCTCG) | 0.88 |
| TTCAAGACTTGGGTTCTAACCTGTTGCCT (site TTCAAGACTAG) | 0.681 |
| TTCAAGACTTGGGTTCTAACCTGTTGCCT (site TTCAAGCCTAG) | 0.0955 |
| TTCAAGACTTGGGTTCTAACCTGTTGCCT (site TTCAAGGCTAG) | 0 |
| TTCAAGACTTGGGTTCTAACCTGTTGCCT (site TTCAAGTCTAG) | 0.241 |
| TTCAAGCCTTGGGTTCTAACCTGTTGCGG (site TTCAAGCCTAC) | 0.222 |
| TTCAAGCCTTGGGTTCTAACCTGTTGCGG (site TTCAAGCCTCC) | 1.15 |

| Sequence | recombinant barcode read abundance (log10) |
| --- | --- |
| TTCAAGGCTTGGGTTCTAACCTGTTGCCT (site TTCAAGACTAG) | 0.0627 |
| TTCAAGGCTTGGGTTCTAACCTGTTGCCT (site TTCAAGCCTAG) | 0.118 |
| TTCAAGGCTTGGGTTCTAACCTGTTGCCT (site TTCAAGGCTAG) | 0.17 |
| TTCAAGGCTTGGGTTCTAACCTGTTGCCT (site TTCAAGTCTAG) | 0.461 |
| TTCAAGTCTTGGGTTCTAACCTGTTGCGT (site TTCAACTCTAC) | 0.0281 |
| TTCAAGTCTTGGGTTCTAACCTGTTGCGT (site TTCAAGTCTAC) | 1.33 |
| TTCAATTCTTGGGTTCTAACCTGTTGCTT (site TATAATTCTAA) | 0.00963 |
| TTCAATTCTTGGGTTCTAACCTGTTGCTT (site TTCAATTCTAA) | 0.0521 |
| TTCCCTACTTGGGTTCTAACCTGTTGCCT (site CTCCCAACTAG) | 0.102 |
| TTCCCTACTTGGGTTCTAACCTGTTGCCT (site TTCCCTACTAG) | 0.452 |
| TTCCGAGCTTGGGTTCTAACCTGTTGCAG (site CCTACGCCTTG) | 0.216 |
| TTCCGAGCTTGGGTTCTAACCTGTTGCAG (site TTCCGAGCTCT) | 0.873 |
| TTCGGAGCTTGGGTTCTAACCTGTTGCTG (site TTCGGAGCTCA) | 1.56 |
| TTCGGAGCTTGGGTTCTAACCTGTTGCTG (site TTGGGAGCTCA) | 0.0871 |
| TTCGGCTCTTGGGTTCTAACCTGTTGCTA (site CGATCACCTAG) | 0.0491 |
| TTCGGCTCTTGGGTTCTAACCTGTTGCTA (site TTCGGCTCTTA) | 0.605 |
| TTCGTAGCTTGGGTTCTAACCTGTTGCGT (site TTCGTAGCTAC) | 1.29 |
| TTCGTAGCTTGGGTTCTAACCTGTTGCGT (site TTCGTAGCTAG) | 0.285 |
| TTCTACACTTGGGTTCTAACCTGTTGCAT (site GAACCTTCTCC) | 0.107 |
| TTCTACACTTGGGTTCTAACCTGTTGCAT (site TTCTACACTAT) | 0.298 |
| TTCTACTCTTGGGTTCTAACCTGTTGCCT (site CTCTACTCTAG) | 0.75 |
| TTCTACTCTTGGGTTCTAACCTGTTGCCT (site TTCTACTCTAG) | 0.405 |
